According to patent US20080221205A1, “FURAN DERIVATIVES FOR PREVENTING AND CURING OSTEOPOROSIS AND PHARMACEUTICAL COMPOSITIONS CONTAINING THE SAME” (priority 2002, published 2008):
Entries after “also recorded” stand apart in the source; their conditions may differ.

Columns and labels:
[1] = tested on: ovariectomized white mice; test: Therapeutic effect on osteoporosis: tibia histology, oral administration from four weeks after ovariectomy; type: in vivo; conditions: four weeks to develop osteoporosis, then oral 220 μl/day for four weeks, versus control
Description: (§1) In order to evaluate effects of the compound of the present invention on treatment and prevention of osteoporosis, female white mice with osteoporosis induced by ovariectomy were used as a disease model. After ovariectomy, mice were administered with the compound of the present invention. Tibias were dissected from the mice, and observed histologically.
(§2) After anesthetizing female white mice with 100 mg/kg of Ketamine (Ketara) and 0.15 ml/kg of 2% Xylazine (Rompun), the lumbar dorsum is shaved bilaterally and the exposed skin was prepared for aseptic surgery by a 10% povidone-iodine scrub followed by a 70% alcohol wipe.
(§3) A 1-cm incision was made in the central region of the abdomen, and the ovary was identified along with the uterus with caution not to damage the main organs such as the liver and diaphragm. After ligating the uterus with a thread for suturing, the exposed ovary was severed toward both sides and removed. Thereafter, each organ was relocated to its original position, and the incision was closed with a thread for suturing in an interrupted pattern. After ovariectomy, the mice were injected with 50 mg/kg of cefazolin antibiotic for prevention of infection with pathogens.
In order to evaluate therapeutic effect of the Compound 1 on osteoporosis, after ovariectomy, the mice were fed with solid feedstuff for four weeks. […]

[2] = tested on: ovariectomized white mice; test: Preventive effect 1 on osteoporosis: tibia histology, oral administration after ovariectomy; type: in vivo; conditions: 10 mg/day, four weeks from ovariectomy, versus untreated control
Description: as §1, §2
as §3, with “After ovariectomy, the mice were injected with 50 mg/kg of cefazolin antibiotic for prevention of infection with pathogens.” left out
The daily dosage of the Compound 1 per female white mouse was determined based on 250 g body weight. […] With caution not to exchange the water bottles between the groups, everyday, the number of mice was recorded, and the mixture was prepared based on the number of mice. […]

Runx2 = Runx2 expression, p6xOSE2-Luc luciferase assay in C2C12 cells; type: cell-based, mouse; conditions: concentration not given
Description: (§4) In the following tests, three kinds of cell lines were used. The human osteosarcoma cell lines, MG-63 (ATCC No. CRL-1427) and HOS (ATCC No. CRL-1543), and mouse muscle C2C12 muscle cells (ATCC No. CRL-1772) were purchased from ATCC (American Type Culture Collection, Rockville, USA), and cultured in Dulbecco's modified Eagle's medium (DMEM) supplemented with 10% fetal bovine serum (FBS).
Primarily, transient transfection was carried out using a p6xOSE2-Luc vector, which was prepared by inserting into a pGL3 promoter vector six tandem copies of the OSE2 motif, the binding site of the transcriptional factor Runx2 that is a critical regulator for osteoblast differentiation. Runx2 expression levels were determined by luciferase assay. The test procedure will be described in more detail, as follows.
C2C12 cells were plated onto 6-well plates at a density of 1 (10^5 cells per well, and cultured for 24 hrs in a 5% CO2 incubator.
Then, the cells transiently transfected with the p6xOSE2-Luc vector using a transfection reagent, LipofectAmine, as follows. The plasmid DNA was reacted with the transfection reagent for 15 min to form p6xOSE2-Luc DNA:lipofectamine complexes. During this reaction, culture medium was removed from each well of the plates, the cells were washed with FBS-free DMEM, and 800 μl of FBS-free DMEM was added to each well. […]

osteoprotegerin (OPG) = test: Osteoprotegerin (OPG) expression in MG63 cells, OPG ELISA; type: cell-based, human; conditions: concentration not given
Description: as §4
When MG63 cells grew confluently on 96-well plates, […] of FBS-free DMEM containing various concentrations of the Compound 1 was added to each well. After incubation for 16 hrs, the culture supernatants were collected. The amount of OPG released into the medium was determined using an OPG ELISA kit.

SMILES: O=Cc1ccc(CO)o1 [Compound 1, 5-hydroxymethylfuran-2-carboxyaldehyde]
- Trabecular bone density of tibia, light microscopy [1]: just a slight decrease in trabecular bone density; also recorded: no trabecular bone loss
- Trabecular and cortical bone of tibia, light microscopy [2]: trabecular bone loss was not observed; also recorded: marked increase in the cortical and trabecualr bone; also recorded: no trabecular bone loss
- Activity of Runx2 (in words) (Runx2): increase the activity of Runx2
- Expression of osteoprotegerin (OPG) in osteoblasts (in words) (osteoprotegerin (OPG)): increases the expression of osteoprotegerin (OPG)
